Measurements published in the supplement of paper PMC10307832.

Legend:
Experiment in all cases: relative viability (nuclei count vs DMSO), 5 days (fraction); higher = more cells survive
NCI-H522 = test system: NCI-H522
How it was run: (§1)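 A single step with final 0.05% Triton X-100, 1% formaldehyde and 1 ug/ml Hoechst fixed the cells and stained nuclei 5 days after treatment. Lung cancer cell lines in 1536-well plates had been treated by pin tool the day after seeding with one drug alone or a fixed anchor-drug dose plus five library-drug doses (not always all listed) in √10 steps, and nuclei were counted on 4× images. Relative viability is the ratio of nuclei in treated wells to nuclei in vehicle wells, taken as the median of duplicate plates.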

NCI-H1299 = test system: NCI-H1299
How it was run: as §1

Calu-6 = test system: Calu-6
How it was run: as §1

NCI-H1648 = test system: NCI-H1648
How it was run: as §1

NCI-H2342 = test system: NCI-H2342
How it was run: as §1

NCI-H1703 = test system: NCI-H1703
How it was run: as §1

IA-LM = test system: IA-LM
How it was run: as §1

SW 900 = test system: SW 900
How it was run: as §1

EBC-1 = test system: EBC-1
How it was run: as §1

A549 = test system: A549
How it was run: as §1

NCI-H1563 = test system: NCI-H1563
How it was run: as §1

NCI-H1623 = test system: NCI-H1623
How it was run: as §1

Cc1cnc(-c2cnc(NCCNc3ccc(C#N)cn3)nc2-c2ccc(Cl)cc2Cl)[nH]1 + O=C(c1cc(Cc2n[nH]c(=O)c3ccccc23)ccc1F)N1CCN(C(=O)C2CC2)CC1 [Olaparib] (partner 8 µM)
relative viability (NCI-H522; first compound 0.08 µM): 0.641
relative viability (NCI-H522; first compound 0.253 µM): 0.668
relative viability (NCI-H522; first compound 0.8 µM): 0.681
relative viability (NCI-H522; first compound 2.53 µM): 0.643
relative viability (NCI-H1299; first compound 0.08 µM): 0.953
relative viability (NCI-H1299; first compound 0.253 µM): 0.957
relative viability (NCI-H1299; first compound 0.8 µM): 0.968
relative viability (NCI-H1299; first compound 2.53 µM): 0.856
relative viability (Calu-6; first compound 0.08 µM): 0.532
relative viability (Calu-6; first compound 0.253 µM): 0.547
relative viability (Calu-6; first compound 2.53 µM): 0.468
relative viability (NCI-H1648; first compound 0.08 µM): 0.723
relative viability (NCI-H1648; first compound 0.253 µM): 0.761
relative viability (NCI-H1648; first compound 0.8 µM): 1.2
relative viability (NCI-H1648; first compound 2.53 µM): 0.865
relative viability (NCI-H2342; first compound 0.08 µM): 0.438
relative viability (NCI-H2342; first compound 0.253 µM): 0.387
relative viability (NCI-H2342; first compound 0.8 µM): 0.43
relative viability (NCI-H2342; first compound 2.53 µM): 0.439
relative viability (NCI-H1703; first compound 0.08 µM): 0.48
relative viability (NCI-H1703; first compound 0.253 µM): 0.378
relative viability (NCI-H1703; first compound 0.8 µM): 0.448
relative viability (NCI-H1703; first compound 2.53 µM): 0.486
relative viability (IA-LM; first compound 0.08 µM): 0.77
relative viability (IA-LM; first compound 0.253 µM): 0.766
relative viability (IA-LM; first compound 0.8 µM): 0.87
relative viability (IA-LM; first compound 2.53 µM): 0.709
relative viability (SW 900; first compound 0.08 µM): 0.827
relative viability (SW 900; first compound 0.253 µM): 0.913
relative viability (SW 900; first compound 0.8 µM): 0.848
relative viability (SW 900; first compound 2.53 µM): 0.561
relative viability (EBC-1; first compound 0.08 µM): 0.619
relative viability (EBC-1; first compound 0.253 µM): 0.608
relative viability (EBC-1; first compound 0.8 µM): 0.673
relative viability (EBC-1; first compound 2.53 µM): 0.9
relative viability (A549; first compound 0.08 µM): 0.233
relative viability (A549; first compound 0.253 µM): 0.264
relative viability (A549; first compound 0.8 µM): 0.288
relative viability (A549; first compound 2.53 µM): 0.3

O=C(O)CCCCC(CCSCc1ccccc1)SCc1ccccc1 (configuration not stated) [CPI-613] + CCNC(=O)c1noc(-c2cc(C(C)C)c(O)cc2O)c1-c1ccc(CN2CCOCC2)cc1 [Luminespib] (partner 0.01 µM)
relative viability (NCI-H522; first compound 5 µM): 1.15
relative viability (NCI-H522; first compound 15.81 µM): 1.01
relative viability (NCI-H522; first compound 50 µM): 1.19
relative viability (NCI-H522; first compound 158.11 µM): 0.974
relative viability (NCI-H522; first compound 500 µM): 1.16
relative viability (NCI-H2342; first compound 5 µM): 0.798
relative viability (NCI-H2342; first compound 15.81 µM): 0.738
relative viability (NCI-H2342; first compound 50 µM): 0.543
relative viability (NCI-H2342; first compound 158.11 µM): 0.668
relative viability (NCI-H2342; first compound 500 µM): 0.756
relative viability (NCI-H1563; first compound 5 µM): 0.491
relative viability (NCI-H1563; first compound 15.81 µM): 0.501
relative viability (NCI-H1563; first compound 50 µM): 0.552
relative viability (NCI-H1563; first compound 158.11 µM): 0.357
relative viability (NCI-H1563; first compound 500 µM): 0.316
relative viability (SW 900; first compound 5 µM): 0.162
relative viability (SW 900; first compound 15.81 µM): 0.166
relative viability (SW 900; first compound 50 µM): 0.209
relative viability (SW 900; first compound 158.11 µM): 0.17
relative viability (SW 900; first compound 500 µM): 0.0842
relative viability (NCI-H1623; first compound 5 µM): 0.405
relative viability (NCI-H1623; first compound 15.81 µM): 0.436
relative viability (NCI-H1623; first compound 50 µM): 0.54
relative viability (NCI-H1623; first compound 158.11 µM): 0.389
relative viability (NCI-H1623; first compound 500 µM): 0.447

O=C(O)CCCCC(CCSCc1ccccc1)SCc1ccccc1 (configuration not stated) [CPI-613] + NC(=O)Nc1cc(-c2cccc(F)c2)sc1C(=O)N[C@H]1CCCNC1 [AZD7762] (partner 0.2 µM)
relative viability (NCI-H522; first compound 5 µM): 0.899
relative viability (NCI-H522; first compound 15.81 µM): 0.887
relative viability (NCI-H522; first compound 50 µM): 0.953
relative viability (NCI-H522; first compound 158.11 µM): 0.631
relative viability (NCI-H522; first compound 500 µM): 0.563
relative viability (NCI-H1648; first compound 5 µM): 0.622
relative viability (NCI-H1648; first compound 15.81 µM): 0.701
relative viability (NCI-H1648; first compound 50 µM): 0.645
relative viability (NCI-H1648; first compound 158.11 µM): 0.626
relative viability (NCI-H1648; first compound 500 µM): 0.665
relative viability (NCI-H2342; first compound 5 µM): 0.489
relative viability (NCI-H2342; first compound 15.81 µM): 0.454
relative viability (NCI-H2342; first compound 50 µM): 0.437
relative viability (NCI-H2342; first compound 158.11 µM): 0.522
relative viability (NCI-H2342; first compound 500 µM): 0.576
relative viability (NCI-H1703; first compound 5 µM): 0.133
relative viability (NCI-H1703; first compound 15.81 µM): 0.12
relative viability (NCI-H1703; first compound 50 µM): 0.134
relative viability (NCI-H1703; first compound 158.11 µM): 0.118
relative viability (NCI-H1703; first compound 500 µM): 0.12
relative viability (SW 900; first compound 5 µM): 0.685
relative viability (SW 900; first compound 50 µM): 0.692
relative viability (SW 900; first compound 158.11 µM): 0.273
relative viability (SW 900; first compound 500 µM): 0.0039

O=C(O)CCCCC(CCSCc1ccccc1)SCc1ccccc1 (configuration not stated) [CPI-613] + Nc1ncn([C@H]2C[C@H](O)[C@@H](CO)O2)c(=O)n1 [Decitabine] (partner 2 µM)
relative viability (NCI-H522; first compound 5 µM): 0.678
relative viability (NCI-H522; first compound 15.81 µM): 0.585
relative viability (NCI-H522; first compound 50 µM): 0.697
relative viability (NCI-H522; first compound 158.11 µM): 0.627
relative viability (NCI-H522; first compound 500 µM): 0.3
relative viability (NCI-H1648; first compound 5 µM): 0.568
relative viability (NCI-H1648; first compound 15.81 µM): 0.409
relative viability (NCI-H1648; first compound 50 µM): 0.57
relative viability (NCI-H1648; first compound 158.11 µM): 0.4
relative viability (NCI-H1648; first compound 500 µM): 0.172
relative viability (NCI-H2342; first compound 5 µM): 0.669
relative viability (NCI-H2342; first compound 15.81 µM): 0.656
relative viability (NCI-H2342; first compound 50 µM): 0.838
relative viability (NCI-H2342; first compound 158.11 µM): 0.78
relative viability (NCI-H2342; first compound 500 µM): 0.779
relative viability (SW 900; first compound 5 µM): 0.458
relative viability (SW 900; first compound 50 µM): 0.429
relative viability (SW 900; first compound 158.11 µM): 0.332
relative viability (SW 900; first compound 500 µM): 0.0668
relative viability (A549; first compound 5 µM): 0.284
relative viability (A549; first compound 15.81 µM): 0.195
relative viability (A549; first compound 50 µM): 0.269
relative viability (A549; first compound 158.11 µM): 0.259
relative viability (A549; first compound 500 µM): 0.161
